# Values of other authors, collected in patent US7586020B2, “Methods for determining effects of maternal treatments on offspring” (priority 1998, dated 2009).
# Test system: (YS×VY)FI female mice
# Conditions: between about 17 and 24 months of age
compound,measurement,value
Cl[C@H]1[C@H](Cl)[C@@H](Cl)[C@@H](Cl)[C@H](Cl)[C@H]1Cl [lindane],"mortality, lindane-treated versus untreated control mice",no differences in mortality
